According to ChEMBL document CHEMBL3507680, “University of Dundee, Gates Library screen for HepG2 cell viability”:

Experiment: Human HepG2 cell viability assay in 384 well format
Assay type: toxicity, cell-based
Parameters: dose 125 nL, time 70.5 hour; cytotoxicity at 70.5 h: concentration not given beside the values
Settings: HepG2 cells, read-out: Inhibition

Structure (SMILES) | cytotoxicity at 70.5 h [%]
Cc1cccc(NC(=O)CNC(=O)Cn2ncc(Cl)c(Cl)c2=O)c1C | 4.71
O=C(CCc1ccccn1)N1CCCC(N2CCNC2=O)C1 (centres undefined) | -14.8
CN(C)C(=O)C1CCCN1CCCNC(=O)c1cccc2[nH]ncc12 (centres undefined) | 12.2
Cc1cc(C)n(CC2CCCN2C(=O)c2ccc3[nH]c(=O)[nH]c3c2)n1 (centres undefined) | -17.4
Cc1cc(C)n(CC2CCCN2C(=O)c2ccc3[nH]cnc3c2)n1 (centres undefined) | -9
CSCC(CCO)NC(=O)Nc1ccc(C)cc1C (centres undefined) | -14.5
CSCC(CCO)NC(=O)Nc1ccc(C)cc1Br (centres undefined) | 0.54
Cc1cn(-c2ccccc2)nc1NS(=O)(=O)c1cc(C(=O)O)sc1C | -18.9
Cc1cn(-c2ccccc2)nc1NS(=O)(=O)c1cc(C(=O)O)ccc1Cl | -9.13
O=C(CCc1ccncc1)N1CCCC(N2CCNC2=O)C1 (centres undefined) | -19.2
Cc1cc(CNCc2c(C(C)C)nn(C)c2N2CCOCC2)no1 | -6.34
Cc1ccc(CNCc2c(C(C)C)nn(C)c2N2CCOCC2)s1 | -19.6
Cc1nc(C)n(CC2CCCN2CC(=O)NCCC#N)n1 (centres undefined) | -19.9
CCOCCC1(C(=O)N2CCCC(c3ncc[nH]3)C2)CCCC1 (centres undefined) | -16.4
Cc1nc(C)n(CC2CCCN2CC(=O)NCCc2ccsc2)n1 (centres undefined) | 3.16
Cc1nc(C)n(CC2CCCN2CC(=O)NCCC2=CCCCC2)n1 (centres undefined) | -9.96
Cc1cc(C)n(CC2CCCN2C(=O)c2ccc3c(c2)COC3)n1 (centres undefined) | -13.3
Cc1nc(C)n(CC2CN(CCc3ccccc3Cl)CCO2)n1 (centres undefined) | 39.5
CC(C)n1cc(CN2CCCN(C(=O)c3ccoc3)CC2)cn1 | 27.6
Cc1ccc(OCCCC(=O)NC(C)c2ccc(S(N)(=O)=O)cc2)cc1 (centres undefined) | 34.1
Cc1ccc(NC(C)C(=O)NCc2cccs2)cc1Cl (centres undefined) | 5.9
Cc1ccc(S(N)(=O)=O)cc1C(=O)NCC1Cc2ccccc2O1 (centres undefined) | -3.82
CS(=O)(=O)Cc1ccc(C(=O)NCC2Cc3ccccc3O2)cc1 (centres undefined) | -0.3
Cc1nccn1-c1cc(CNC(=O)N2CCSCC2)ccn1 | -3.48

Structure (SMILES) | cytotoxicity at 70.5 h [%]
Cc1nccn1-c1cc(CNC(=O)CCNC(=O)OC(C)(C)C)ccn1 | -7.58
CS(=O)(=O)c1cccc(C(=O)NCC2Cc3ccccc3O2)c1 (centres undefined) | -5.79
Cc1cc(C)c(S(N)(=O)=O)cc1C(=O)NCC1Cc2ccccc2O1 (centres undefined) | -5.64
CC(Oc1ccccc1C(F)(F)F)C(=O)NCC(=O)N1CCCC1 (centres undefined) | -6.07
COC(=O)CNC(=O)C(C)Oc1ccccc1C(F)(F)F (centres undefined) | -3.31
Cc1cc(C(=O)N2CCCN(Cc3cnn(C(C)C)c3)CC2)no1 | -3
COc1ccsc1C(=O)N1CCCC1c1c(C)nn(C)c1OC (centres undefined) | -4.7
O=C1CC(Cc2ccc(NC(=O)c3cccc(F)c3)cc2)C(=O)N1 (centres undefined) | -3.69
CC1CN(C)c2ccccc2CN1C(=O)c1ccoc1 (centres undefined) | 10
Cc1ccoc1C(=O)NCCOc1ncc(Cl)cc1Cl | -4.36
CC1CN(C)c2ccccc2CN1C(=O)c1cc[nH]c(=O)c1 (centres undefined) | -0.482
Cc1cc(C)n(CC2CN(CCc3ccncc3)CCO2)n1 (centres undefined) | -2.71
CC(C)n1cc(CN2CCCN(C(=O)c3ccnn3C)CC2)cn1 | -2.89
COCCOCCNC(=O)C(C)Oc1ccccc1C(F)(F)F (centres undefined) | -5.94
COC(=O)C(O)C1CCN(Cc2cccc(-n3cccn3)c2)CC1 (centres undefined) | -1.06
O=C(c1cncc(Br)c1)N1CCCc2ccc(F)cc21 | -5.54
Cc1cccc(N(CCC(N)=O)CC(=O)Nc2ccccc2)c1 | 0.933
COCc1cccc(NC(=O)NCc2ncc(C)c(OC)c2C)c1 | 0.253
Cc1cc(NC(=O)CSc2nc(=O)ccn2C(C)C)no1 | -0.711
O=C1C(NCc2ccccc2O)CCN1Cc1ccccc1 (centres undefined) | 18.3
O=C(c1cc[nH]n1)N(Cc1ccc(F)cc1)CC1CC1 | 0.0679
COCCNc1ccc(CNC(=O)C2COc3ccccc32)cc1 (centres undefined) | 19.2
Cc1nccc(CNC(=O)NCC(C)Oc2ccccc2F)n1 (centres undefined) | 10.9
CNC(=O)c1ccc(Cn2ccnc2S(C)(=O)=O)cc1 | -0.546

Structure (SMILES) | cytotoxicity at 70.5 h [%]
CCn1ccnc1S(=O)(=O)Cc1ccc(C(N)=O)cc1 | -2.48
CS(=O)(=O)c1nccn1Cc1ccc(Cl)cc1 | -5.04
CCS(=O)(=O)CC(=O)Nc1cccc2c1CN(CC(C)C)C2 | -0.0392
CN(C(=O)CCNC(=O)C1COc2ccccc21)c1ccccc1 (centres undefined) | -6.34
Cc1cc(C)n(CC(=O)NC2CCCCNC2=O)n1 (centres undefined) | -6.78
Cc1ccc(S(=O)(=O)NC(=O)CCOCC(C)C)s1 | 8.21
CCC(Nc1nnnn1-c1ccccc1)C(=O)Nc1nc(C)cs1 (centres undefined) | -12.4
CCC(Nc1nnnn1-c1ccccc1)C(=O)NCc1ccsc1 (centres undefined) | -12.5
CC(=O)N1CCN(C(=O)CNc2cccc(OC(F)F)c2C)CC1 | -1.78
Cc1noc(C)c1CN(C)C(=O)COc1cccc(C#N)c1 | -10.8
CCC1CN(C(=O)c2csc(-c3cnn(C)c3)n2)CCO1 (centres undefined) | -10.2
COCCCN(C)S(=O)(=O)c1ccc(C(F)(F)F)cc1C#N | -10.6
CCN(CC)S(=O)(=O)c1ccc(C(F)(F)F)cc1C#N | -8.21
CN(CC1CC1)S(=O)(=O)c1ccc(C(F)(F)F)cc1C#N | -11.7
CCC(C)(C)NC(=O)CSCc1ccc(S(=O)(=O)N(C)C)o1 | -9.79
COc1ccsc1C(=O)Nc1cc(Br)c(=O)n(C)c1 | -4.19
Cc1csc(C(C#N)C(=O)NCc2ccccc2)n1 (centres undefined) | -6.71
COc1cccc(NC(=O)NCC(Cc2cnn(C)c2)C(N)=O)c1 (centres undefined) | -7.2
Cn1cc(CC(CNC(=O)Nc2cccc(Cl)c2)C(N)=O)cn1 (centres undefined) | -6.01
CC(C)C(c1cccnc1)N(C)C(=O)Cc1c(F)cccc1F (centres undefined) | -6.11
O=C(Cc1ccc(S(=O)(=O)C(F)F)cc1)N1CCCC1 | -5.59
CC1CCN(C(=O)Cc2ccc(S(=O)(=O)C(F)F)cc2)CC1 | -11
COCCOC1CCN(C(=O)NCc2cc(C)oc2C)CC1 | -8.46
CC(C)c1nnc2n1CCN(C(C)c1nnc(-c3cccs3)o1)C2 (centres undefined) | -3.01

Structure (SMILES) | cytotoxicity at 70.5 h [%]
CC(C)N(C)C(=O)CSCc1ccc(S(=O)(=O)N(C)C)o1 | -10.8
Cc1ccc2c(c1)OCCCC2NCc1nccn1Cc1ccccc1 (centres undefined) | -6.01
CCN1CCN(C(=O)C(C)SC)CC1 (centres undefined) | -6.96
Cc1cccc2c1OCCCC2NCc1nccn1Cc1ccccc1 (centres undefined) | -5.77
Cc1ccc2c(c1)OCCCC2NCc1nccn1CC(C)C (centres undefined) | -7.28
Cc1nc(CNC(C(=O)N2CCOCC2)C(C)C)no1 (centres undefined) | -6.16
COCCN(CCOC)c1ncccc1Cl | -6.57
Cc1nc(CN(C)C2CCN(Cc3cccc4cccnc34)C2)no1 (centres undefined) | 34
CCc1nnnn1Cc1csc(N(C)C(C)=O)n1 | 11.5
O=C(NCC1(Sc2ccccc2)CC1)c1c[nH]nn1 | -0.96
O=C(NCC1(Sc2ccccc2)CC1)c1cc[nH]n1 | -1.79
CS(=O)(=O)c1ccc(C(=O)NCc2nc3cc(F)ccc3[nH]2)cc1 | 0.751
Cc1noc(C)c1CC(=O)N1CCCN(C)c2ccc(Cl)cc21 | -11.4
Cc1cc(S(=O)(=O)NCC[S+](C)[O-])c(F)cc1F (centres undefined) | -2.05
CC(O)(CNC(=O)c1cccnc1-n1cccn1)c1ccco1 (centres undefined) | -4.51
NC(=O)CN1CCC(OCc2ccc(Cl)c(Cl)c2)CC1 | -1.02
CCc1cnccc1C(=O)NC1CCN(C(=O)OC)CC1 | 24.5
CC(O)(CNC(=O)c1cccnc1-n1cccn1)c1cccs1 (centres undefined) | -9.1
CC(C)(C)SCC(=O)NC(C)(C(N)=O)c1cccc(Cl)c1 (centres undefined) | -6.38
CC(C)(C)CC(=O)NC(C)(C(N)=O)c1cccc(Cl)c1 (centres undefined) | 17.3
Cc1nnc(CN(C)CC2CCCCC2)o1 | -11.8
Cc1cc(S(=O)(=O)NCC(C)(O)CN(C)C)c(F)cc1F (centres undefined) | -9.95
CC1COCCN1Cc1noc(C(C)(C)C)n1 (centres undefined) | 19.8
Cc1cnn(CC2CCCN2Cc2cc(=O)n3ccccc3n2)c1 (centres undefined) | -5.58

Structure (SMILES) | cytotoxicity at 70.5 h [%]
Cc1cc(CN2CCCC(C)(CO)C2)ccc1F (centres undefined) | -6.61
Cc1ccc(C(CNCC2CC2)N2CCOCC2)s1 (centres undefined) | 11.7
CS(=O)(=O)NCCCNC(=O)c1cccnc1O | -4.43
O=C(Nc1ccc(N2CCCC2)nc1)N1CCc2sccc2C1 | 15.9
Cc1cc(NC(=O)c2nc(N3CCCC3)ncc2Cl)nc(C(C)C)n1 | 2.57
CS(=O)(=O)c1ccc(NC(=O)N2CCc3sccc3C2)cn1 | 46.4
COc1cc(CN(C)C(=O)Nc2cc(C)on2)ccc1SC | -1.35
N#CCCN(CCC#N)C(=O)CN1CCCC1Cc1cccc(F)c1 (centres undefined) | -5
Cc1ccc(C(=O)NCCCNS(C)(=O)=O)c(=O)[nH]1 | -3.31
CNC(=O)c1cnc(/C=C/c2ccc(OC)c(O)c2)s1 | -6.12
O=C(Nc1ccc(N2CCCC2)nc1)N1CCc2ccccc2C1 | 3.91
COc1ccc(NC(=O)C2CCOC2)c(N2CCN(C(C)=O)CC2)n1 (centres undefined) | 4.61
COc1ccc(NC(=O)c2ccc[nH]2)c(N2CCN(C(C)=O)CC2)n1 | -0.755
CCCNC(=O)Nc1cc2c(cc1SC)OCCO2 | 0.576
CSc1cc2c(cc1NC(=O)NCC(C)(C)C(N)=O)OCCO2 | -1.42
CCCN1CCC(NC(=O)NCCc2nc(CC)c(C)s2)CC1 | -1.97
CCCn1nc2c(cc1=O)CN(Cc1cc(C)on1)CC2 | 4.88
Cc1noc(CN2CCN(CC(C)O)CC2)n1 (centres undefined) | 2.13
COCCCN1CCCN(C(C)C(=O)Nc2cccc(I)c2)CC1 (centres undefined) | 21.2
O=C1C(NCc2ccc3c(c2)CCO3)CCN1Cc1ccccc1 (centres undefined) | -14.7
Cc1ccc(S(=O)(=O)NCC(C)(C)N)c(F)c1 | -6.25
Cc1cc(S(=O)(=O)NCC(C)(C)N)c(F)cc1F | -0.878
NCC1(c2cccc(Br)c2)CCOCC1 | -5.45
